Test results reported in patent US10167262B2, “Herbicidal substituted 3-arylpyrazoles” (FMC CORPORATION, priority 2014, dated 2019).

What was measured:
Assay type in all cases: in vivo
[1] = system: ducksalad (Heteranthera limosa); test: Test B flooded paddy test, plant response rating 0-100; details: Flood, 250 g ai/ha; scale 0 to 100 (0 no effect, 100 complete control); 13 to 15 days
How it was run: (§1)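 Flooded 3 cm over soil; compound into paddy water; depth kept constant. Greenhouse 13–15 d.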

[2] = system: sedge, umbrella (small-flower umbrella sedge, Cyperus difformis); test: as above; details: Flood, 250 g ai/ha; scale 0 to 100 (0 no effect, 100 complete control); 13 to 15 days
How it was run: as §1

[3] = system: rice (Oryza sativa); test: as above; details: Flood, 250 g ai/ha; scale 0 to 100 (0 no effect, 100 complete control); 13 to 15 days
How it was run: as §1

[4] = system: barnyardgrass (Echinochloa crus-galli); test: as above; details: Flood, 250 g ai/ha; scale 0 to 100 (0 no effect, 100 complete control); 13 to 15 days
How it was run: as §1

[5] = system: waterhemp_RES2, (ALS & HPPD resistant common waterhemp, Amaranthus rudis); test: Test E postemergence greenhouse test, plant response rating 0-100; details: scale 0 to 100
Description: (§2) At the same time, plants from these crop and weed species and also waterhemp_RES1, (ALS & Triazine resistant common waterhemp, Amaranthus rudis), and waterhemp_RES2, (ALS & HPPD resistant common waterhemp, Amaranthus rudis) were planted in pots containing Redi-Earth® planting medium (Scotts Company, 14111 Scottslawn Road, Marysville, Ohio 43041) comprising spaghnum peat moss, vermiculite, wetting agent and starter nutrients were treated with postemergence applications of test chemicals formulated in the same manner. Plants ranged in height from 2 to 18 cm for postemergence treatments (1- to 4-leaf stage).
(§3) Treated plants and controls were maintained in a greenhouse for 14 to 21 days, after which time all species were compared to controls and visually evaluated. Plant response ratings, summarized in Table E, are based on a scale of 0 to 100 where 0 is no effect and 100 is complete control. A dash (-) response means no test result.

[6] = system: dayflower (Virginia (VA) dayflower, Commelina virginica); test: Test E pre-/postemergence greenhouse test, plant response rating 0-100; details: scale 0 to 100
Description: (§4) Seeds of plant species selected from corn (Zea mays), soybean (Glycine max), velvetleaf (Abutilon theophrasti), lambsquarters (Chenopodium album), wild poinsettia (Euphorbia heterophylla), palmer pigweed (Amaranthus palmeri), waterhemp (common waterhemp, Amaranthus rudis), surinam grass (Brachiaria decumbens), large (Lg) crabgrass (Digitaria sanguinalis), Brazilian crabgrass (Digitaria horizontalis), fall panicum (Panicum dichotomiflorum), giant foxtail (Setaria faberii), green foxtail (Setaria viridis), goosegrass (Eleusine indica), johnsongrass (Sorghum halepense), ragweed (common ragweed, Ambrosia elatior), barnyardgrass (Echinochloa crus-galli), sandbur (southern sandbur, Cenchrus echinatus), arrowleaf sida (Sida rhombifolia), Italian ryegrass (Lolium multiflorum), dayflower (Virginia (VA) dayflower, Commelina virginica), field bindweed (Convolvulus arvensis), morningglory (Ipomoea coccinea), nightshade (eastern black nightshade, Solanum ptycanthum), kochia (Kochia scoparia), yellow nutsedge (Cyperus esculentus), smartweed (ladysthumb smartweed, Polygonum persicaria), cocklebur (common cocklebur, Xanthium strumarium), and hairy beggarticks (Bidens pilosa), were planted into a silt loam soil and treated preemergence with test chemicals formulated in a non-phytotoxic solvent mixture which included a surfactant.
as §2, §3

[7] = system: field bindweed (Convolvulus arvensis); test: as above; details: scale 0 to 100
Description: as §4, §2, §3

[8] = system: Italian ryegrass (Lolium multiflorum); test: as above; details: Postemergence, scale 0 to 100
Description: as §4, §2, §3

[9] = system: barnyardgrass (Echinochloa crus-galli); test: Test C pre-/postemergence greenhouse test, plant response rating 0-100; details: Preemergence
How it was run: (§5)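 Greenhouse test. Preemergence: seed in loam:sand, sprayed with formulated chemical (solvent + surfactant). Postemergence: 1–4 leaf plants, 2–18 cm, peat-based potting medium. Hold 13–15 d; score visually, 0 (none) to 100 (complete control); dash = not tested.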

[10] = system: waterhemp (common waterhemp, Amaranthus rudis); test: as above; details: Preemergence
How it was run: as §5

[11] = Commelina virginica, post-emergence, Postemergence, 31 g ai/ha
[12] = Commelina virginica, post-emergence, Postemergence, 62 g ai/ha
[13] = Commelina virginica, post-emergence, Postemergence, 125 g ai/ha
[14] = Commelina virginica, post-emergence, Postemergence, 250 g ai/ha
[15] = Convolvulus arvensis, post-emergence, Postemergence, 31 g ai/ha
[16] = Convolvulus arvensis, post-emergence, Postemergence, 62 g ai/ha
[17] = Convolvulus arvensis, post-emergence, Postemergence, 125 g ai/ha
[18] = Convolvulus arvensis, post-emergence, Postemergence, 250 g ai/ha
[19] = Lolium multiflorum, post-emergence, 31 g ai/ha
[20] = Lolium multiflorum, post-emergence, 62 g ai/ha
[21] = Lolium multiflorum, post-emergence, 125 g ai/ha
[22] = Lolium multiflorum, post-emergence, 250 g ai/ha

Cn1cc(C(=NN2CCCC2)c2ccccc2)c(-c2cc(Cl)c(Cl)c(Cl)c2)n1 [Compound 25]
Plant response rating, Ducksalad [1]: 0 | Plant response rating, Sedge, Umbrella [2]: 70 | Plant response rating, Rice [3]: 0

CCn1cc(C(=O)c2ccccc2)c(-c2cc(Br)cc(Br)c2)n1 [Compound 38]
Plant response rating, Barnyardgrass [4]: 0 | Plant response rating, Ducksalad [1]: 0 | Plant response rating, Sedge, Umbrella [2]: 0 | Plant response rating, Rice [3]: 0

CC(C)n1cc(C(=O)c2ccccc2)c(-c2cc(Cl)cc(Cl)c2)n1 [Compound 44]
Plant response rating, Barnyardgrass [4]: 0 | Plant response rating, Ducksalad [1]: 0 | Plant response rating, Sedge, Umbrella [2]: 0 | Plant response rating, Rice [3]: 0

Cn1cc(C(=O)c2ccccc2)c(-c2cc(Br)cc(Br)c2)n1 [Compound 53]
Plant response rating, Barnyardgrass [4]: 0 | Plant response rating, Ducksalad [1]: 0 | Plant response rating, Sedge, Umbrella [2]: 40 | Plant response rating, Rice [3]: 0

Cn1cc(C(=O)c2ccccc2)c(-c2cc(Cl)cc(Cl)c2)n1 [Compound 54, [3-(3,5-dichlorophenyl)-1-methyl-1H-pyrazol-4-yl]phenylmethanone]
Plant response rating, Waterhemp_RES2 ([5]; 62 g ai/ha): 80 | Plant response rating, Waterhemp_RES2 ([5]; 125 g ai/ha): 85 | Plant response rating, Waterhemp_RES2 ([5]; 250 g ai/ha): 85 | pest or weed control at 16 g/ha ([6]; Commelina virginica, post-emergence, Postemergence, 16 g ai/ha): 0% | pest or weed control at 31 g/ha [6, 11]: 0% | pest or weed control at 62 g/ha [6, 12]: 0% | pest or weed control at 125 g/ha [6, 13]: 0% | pest or weed control at 250 g/ha [6, 14]: 0% | pest or weed control at 1000 g/ha ([6]; Commelina virginica, pre-emergence, Preemergence, 1000 g ai/ha): 0% | Dayflower, VA plant response rating ([6]; Preemergence, 125 g ai/ha): 0 | Dayflower, VA plant response rating ([6]; Preemergence, 250 g ai/ha): 0 | pest or weed control at 16 g/ha ([7]; Convolvulus arvensis, post-emergence, Postemergence, 16 g ai/ha): 0% | pest or weed control at 31 g/ha [7, 15]: 0% | pest or weed control at 62 g/ha [7, 16]: 0% | pest or weed control at 125 g/ha [7, 17]: 0% | pest or weed control at 250 g/ha [7, 18]: 0% | pest or weed control at 1000 g/ha ([7]; Convolvulus arvensis, pre-emergence, Preemergence, 1000 g ai/ha): 0% | Field Bindweed plant response rating ([7]; Preemergence, 125 g ai/ha): 0 | Field Bindweed plant response rating ([7]; Preemergence, 250 g ai/ha): 0 | pest or weed control at 31 g/ha [8, 19]: 0% | pest or weed control at 62 g/ha [8, 20]: 0% | pest or weed control at 125 g/ha [8, 21]: 0% | pest or weed control at 250 g/ha [8, 22]: 0% | Plant response rating, Barnyardgrass ([9]; 62 g ai/ha): 0 | Plant response rating, Barnyardgrass ([9]; 125 g ai/ha): 0 | Plant response rating, Barnyardgrass ([9]; 250 g ai/ha): 0 | Plant response rating, Barnyardgrass ([9]; 500 g ai/ha): 0 | Plant response rating, Waterhemp ([10]; 62 g ai/ha): 90 | Plant response rating, Waterhemp ([10]; 125 g ai/ha): 95 | Plant response rating, Waterhemp ([10]; 250 g ai/ha): 98 | Plant response rating, Waterhemp ([10]; 500 g ai/ha): 100

Fc1ccccc1NN=C(c1ccccc1)c1c[nH]nc1-c1cc(Cl)cc(Cl)c1 [Compound 57]
Plant response rating, Barnyardgrass [4]: 0 | Plant response rating, Ducksalad [1]: 0 | Plant response rating, Sedge, Umbrella [2]: 75 | Plant response rating, Rice [3]: 0

C=CCn1cc(C(=O)c2ccccc2)c(-c2cc(Cl)cc(Cl)c2)n1 [Compound 60]
Plant response rating, Waterhemp_RES2 ([5]; 62 g ai/ha): 20 | Plant response rating, Waterhemp_RES2 ([5]; 125 g ai/ha): 20 | Plant response rating, Waterhemp_RES2 ([5]; 250 g ai/ha): 25 | Plant response rating, Dayflower, VA ([6]; Postemergence, 16 g ai/ha): 0 | Plant response rating, Dayflower, VA ([6]; Postemergence, 31 g ai/ha): 0 | Plant response rating, Dayflower, VA ([6]; Postemergence, 62 g ai/ha): 0 | Plant response rating, Dayflower, VA ([6]; Postemergence, 125 g ai/ha): 0 | Plant response rating, Dayflower, VA ([6]; Postemergence, 250 g ai/ha): 0 | Plant response rating, Field Bindweed ([7]; Postemergence, 16 g ai/ha): 0 | Plant response rating, Field Bindweed ([7]; Postemergence, 31 g ai/ha): 0 | Plant response rating, Field Bindweed ([7]; Postemergence, 62 g ai/ha): 0 | Plant response rating, Field Bindweed ([7]; Postemergence, 125 g ai/ha): 0 | Plant response rating, Field Bindweed ([7]; Postemergence, 250 g ai/ha): 0 | Plant response rating, Ryegrass, Italian ([8]; 31 g ai/ha): 0 | Plant response rating, Ryegrass, Italian ([8]; 62 g ai/ha): 0 | Plant response rating, Ryegrass, Italian ([8]; 125 g ai/ha): 0 | Plant response rating, Ryegrass, Italian ([8]; 250 g ai/ha): 0

CCCn1cc(C(=O)c2ccccc2)c(-c2cc(Cl)cc(Cl)c2)n1 [Compound 61, [3-(3,5-dichlorophenyl)-1-propyl-1H-pyrazol-4-yl]phenylmethanone]
Plant response rating, Waterhemp_RES2 ([5]; 31 g ai/ha): 20 | Plant response rating, Waterhemp_RES2 ([5]; 125 g ai/ha): 40 | Plant response rating, Waterhemp_RES2 ([5]; 500 g ai/ha): 95 | pest or weed control at 31 g/ha [6, 11]: 0% | pest or weed control at 62 g/ha [6, 12]: 0% | pest or weed control at 125 g/ha [6, 13]: 0% | pest or weed control at 250 g/ha [6, 14]: 0% | pest or weed control at 500 g/ha ([6]; Commelina virginica, post-emergence, Postemergence, 500 g ai/ha): 0% | pest or weed control at 31 g/ha [7, 15]: 0% | pest or weed control at 62 g/ha [7, 16]: 0% | pest or weed control at 125 g/ha [7, 17]: 0% | pest or weed control at 250 g/ha [7, 18]: 0% | pest or weed control at 500 g/ha ([7]; Convolvulus arvensis, post-emergence, Postemergence, 500 g ai/ha): 5% | pest or weed control at 31 g/ha [8, 19]: 0% | pest or weed control at 62 g/ha [8, 20]: 0% | pest or weed control at 125 g/ha [8, 21]: 0% | pest or weed control at 250 g/ha [8, 22]: 0% | pest or weed control at 500 g/ha ([8]; Lolium multiflorum, post-emergence, 500 g ai/ha): 0%

Clc1cc(Cl)cc(-c2n[nH]cc2C(=NNc2ccccc2Cl)c2ccccc2)c1 [Compound 66]
Plant response rating, Barnyardgrass [4]: 0 | Plant response rating, Ducksalad [1]: 0 | Plant response rating, Sedge, Umbrella [2]: 70 | Plant response rating, Rice [3]: 0
